# Test results reported in ChEMBL document CHEMBL3885881, “DrugMatrix”.
# Species: Rattus norvegicus
# Assay: DrugMatrix - Regimen: Daily Repeat
# Format: toxicity, organism-based, Sprague-Dawley
# Parameters: regimen Daily Repeat, gender Male, age 6-8 weeks
# Conditions: in vivo, po, 1500 mg/kg, route oral GAVAGE, dose level High, vehicle .5 % CMC; for ABSOLUTE BASOPHIL / ABSOLUTE EOSINOPHIL / ABSOLUTE LYMPHOCYTE / ABSOLUTE MONOCYTE / ABSOLUTE SEGMENTED NEUTROPHIL / BASOPHIL / EOSINOPHIL / ERYTHROCYTE COUNT / HEMATOCRIT / HEMOGLOBIN / LEUKOCYTE COUNT / LYMPHOCYTE / MEAN CORPUSCULAR HEMOGLOBIN / MEAN CORPUSCULAR HEMOGLOBIN CONCENTRATION / MEAN CORPUSCULAR VOLUME / MONOCYTE / NEUTROPHIL / NUCLEATED RED BLOOD CELLS / PLATELET COUNT: tissue Blood
# [1] = 72 h, tissue Plasma, time 3 day
# [2] = 120 h, tissue Plasma, time 5 day
structure (smiles),measurement,setting,value
CC(C)=CCC/C(C)=C/CO [GERANIOL],ABSOLUTE BASOPHIL,"72 h, time 3 day",0 CELLS/uL
same,ABSOLUTE EOSINOPHIL,"72 h, time 3 day",0 CELLS/uL
same,ABSOLUTE LYMPHOCYTE,"72 h, time 3 day",15609.33 CELLS/uL
same,ABSOLUTE MONOCYTE,"72 h, time 3 day",78.67 CELLS/uL
same,ABSOLUTE SEGMENTED NEUTROPHIL,"72 h, time 3 day",1378.67 CELLS/uL
same,BASOPHIL,"72 h, time 3 day",0%
same,EOSINOPHIL,"72 h, time 3 day",0%
same,ERYTHROCYTE COUNT,"72 h, time 3 day",5.7 x10E6/uL
same,HEMATOCRIT,"72 h, time 3 day",37.23%
same,HEMOGLOBIN,"72 h, time 3 day",14.37 G/DL
same,LEUKOCYTE COUNT,"72 h, time 3 day",17.07 x10E3/uL
same,LYMPHOCYTE,"72 h, time 3 day",92%
same,MEAN CORPUSCULAR HEMOGLOBIN,"72 h, time 3 day",25.2 pg
same,MEAN CORPUSCULAR HEMOGLOBIN CONCENTRATION,"72 h, time 3 day",38.57 G/DL
same,MEAN CORPUSCULAR VOLUME,"72 h, time 3 day",65.37 fL
same,MONOCYTE,"72 h, time 3 day",0.33%
same,NEUTROPHIL,"72 h, time 3 day",7.67%
same,NUCLEATED RED BLOOD CELLS,"72 h, time 3 day",0.33 /100WBC
same,PLATELET COUNT,"72 h, time 3 day",1276 x10E3/uL
same,ALANINE AMINOTRANSFERASE,[1],47.33 u/L
same,ALBUMIN,[1],4.4 G/DL
same,ALKALINE PHOSPHATASE,[1],442 u/L
same,ASPARTATE AMINOTRANSFERASE,[1],82 u/L
same,BLOOD UREA NITROGEN,[1],13 mg/dL
same,CARBON DIOXIDE,[1],29 mmol/L
same,CHLORIDE,[1],100.67 MEQ/L
same,CHOLESTEROL,[1],46.33 mg/dL
same,CREATINE PHOSPHOKINASE,[1],471.33 u/L
same,CREATININE,[1],0.25 mg/dL
same,GLUCOSE,[1],162 mg/dL
same,LACTATE DEHYDROGENASE,[1],193.67 u/L
same,LIPASE,[1],9 u/L
same,PHOSPHORUS,[1],14.7 mg/dL
same,POTASSIUM,[1],7.11 MEQ/L
same,SODIUM,[1],143.87 MEQ/L
same,TOTAL BILIRUBIN,[1],0.13 mg/dL
same,TOTAL PROTEIN,[1],5.93 G/DL
same,URIC ACID,[1],2.07 mg/dL
same,ABSOLUTE BASOPHIL,"120 h, time 5 day",0 CELLS/uL
same,ABSOLUTE EOSINOPHIL,"120 h, time 5 day",0 CELLS/uL
same,ABSOLUTE LYMPHOCYTE,"120 h, time 5 day",19247.33 CELLS/uL
same,ABSOLUTE MONOCYTE,"120 h, time 5 day",1179 CELLS/uL
same,ABSOLUTE SEGMENTED NEUTROPHIL,"120 h, time 5 day",2373.67 CELLS/uL
same,BASOPHIL,"120 h, time 5 day",0%
same,EOSINOPHIL,"120 h, time 5 day",0%
same,ERYTHROCYTE COUNT,"120 h, time 5 day",6.01 x10E6/uL
same,HEMATOCRIT,"120 h, time 5 day",36.67%
same,HEMOGLOBIN,"120 h, time 5 day",14.67 G/DL
same,LEUKOCYTE COUNT,"120 h, time 5 day",22.8 x10E3/uL
same,LYMPHOCYTE,"120 h, time 5 day",84.67%
same,MEAN CORPUSCULAR HEMOGLOBIN,"120 h, time 5 day",24.53 pg
same,MEAN CORPUSCULAR HEMOGLOBIN CONCENTRATION,"120 h, time 5 day",40.03 G/DL
same,MEAN CORPUSCULAR VOLUME,"120 h, time 5 day",61.2 fL
same,MONOCYTE,"120 h, time 5 day",5%
same,NEUTROPHIL,"120 h, time 5 day",10.33%
same,NUCLEATED RED BLOOD CELLS,"120 h, time 5 day",0 /100WBC
same,PLATELET COUNT,"120 h, time 5 day",1333 x10E3/uL
same,ALANINE AMINOTRANSFERASE,[2],63 u/L
same,ALBUMIN,[2],4.63 G/DL
same,ALKALINE PHOSPHATASE,[2],302.67 u/L
same,ASPARTATE AMINOTRANSFERASE,[2],95.67 u/L
same,BLOOD UREA NITROGEN,[2],18 mg/dL
same,CARBON DIOXIDE,[2],32 mmol/L
same,CHLORIDE,[2],102.33 MEQ/L
same,CHOLESTEROL,[2],85.67 mg/dL
same,CREATINE PHOSPHOKINASE,[2],441 u/L
same,CREATININE,[2],0.16 mg/dL
same,GLUCOSE,[2],143 mg/dL
same,LACTATE DEHYDROGENASE,[2],772 u/L
same,LIPASE,[2],10 u/L
same,PHOSPHORUS,[2],12.2 mg/dL
same,POTASSIUM,[2],6.32 MEQ/L
same,SODIUM,[2],142.2 MEQ/L
same,TOTAL BILIRUBIN,[2],0.1 mg/dL
same,URIC ACID,[2],2 mg/dL
